From patent US20230122540A1, “SYSTEMS AND METHODS TO TRACK THE EVOLUTION OF SINGLE CELLS” (Genentech, Inc., priority 2020, published 2023)
“Also recorded” adds a separate entry of the source. Where two headings read alike, the source gives them in different places. Each block holds one molecule with its values, some of them ahead of it.

Tests used:
ATF4, CHOP, GADD34 = assay: qRT-PCR of pro-death genes downstream of ER stress; format: cell-based, human; conditions: for expression of key pro-death ISR genes downstream of ER stress (ATF4, CHOP, GADD34): PC9, HCC4006 and NCI-H1975 cells; for induction of pro-death ER stress genes: PC9 cells, with GNE-104, very low non-toxic concentrations
Procedure: RNA extraction and qRT-PCR: RNA was extracted using Qiagen RNeasy Plus kit following manufacturer's instruction. RNA was reverse transcribed using High-Capacity cDNA Reverse Transcription Kit (Thermo Fisher Scientific Cat. No. 4368814). qPCRs were performed using TaqMan™ Fast Advanced Master Mix (Thermo Fisher Scientific Cat. No. 4444557) on ABI QuantStudio 7 Flex Real-Time PCR Systems. HPRT1 was used as the internal control to quantify relative gene expression levels. Taqman probes were obtained from Thermo Fisher Scientific (Cat. No. 431182, 4448490). These probes were used in the study: ATF4 Hs00909569_g1, DDIT3/CHOP Hs00358796_g1, PPP1R15A/GADD34 Hs00169585_m1, SLC7A5 Hs01001183_m1, ETV4 Hs00385910_m1, SPRY4 Hs00540086_m1, DUSP6 Hs04329643_s1, HPRT1 Hs02800695_m1.

PC9 and H1975 cells = assay: Clonogenic / CellTiter-Glo assay with pharmacological ER stress modulators; format: cell-based
Procedure: (§1) Clonogenic assay: Cells were seeded at desired densities in two to three replicates in 6-well plates and allowed to attach overnight. The following day cells were treated with the indicated compounds. Media containing the appropriate compounds was replenished every 48-72 hours. At the end of the assay, the cells were washed once with PBS, fixed and stained with crystal violet solution (Sigma Aldrich, HT90132) for 20 minutes, washed with water, and allowed to dry before scanning. For experiments shown in FIG. 18E erlotinib concentration were determined to match the cell viability effect to 1 μM GNE-069 in each cell line, so that 1 μM erlotinib was applied to PC-9 and HCC2935, and 100 nM erlotinib was applied to HCC4006 and HCC827. For experiments shown in FIG. 27B, cells were treated with either DMSO or 1 μM ISRIB (Tocris Cat. No. 5284) for 24 h, and then co-treated with EGFR inhibitors for 8 days. For other experiments cells were treated with 1 μM GNE-104 for 24 h, and then co-treated with 0.5 μg/ml Tunicamycin (Sigma Aldrich, T7765), or 1 nM Thapsigargin (Sigma Aldrich, T9033) for three days.
Cell viability and cell death quantification: For experiments shown in FIGS. 24C, 27D, the indicated cells were seeded at desired densities in replicates in 24-well plates and allowed to attach overnight. The following day cells were treated with the indicated compounds. Media containing the appropriate compounds was replenished every 48 hours. At each media change, cell viabilities were quantified using CellTiter-Glo Luminescent Cell Viability Assay (Promega, G7572). For experiments shown in FIG. 191 and FIG. 29D, PC9 cells were seeded in replicates in 96-well plates and allowed to attach overnight. The following day cells were treated with the indicated compounds or compound combinations at the indicated concentrations. Induction of cell death was quantified 24 h post-treatment using Caspase-Glo 3/7 Assay System (Promega, G8093) and cell survival were measured 72 h post-treatment using CellTiter-Glo Luminescent Cell Viability Assay (Promega, G7572). […]

[1] = Crystal violet % Survival with ISR modulators (Example 3); format: cell-based
Procedure: Tunicamycin and Thapsigargin were used as inducers of ER stress, and Integrated Stress Response Inhibitor (ISRIB) was used to inhibit ISR activation. Cells were treated with Degrader, Degrader+Tunicamycin, or Degrader+Thapsigargin to assess the effect of ER stress on Degrader efficacy. In another experimental group, cells were treated either with Degrader, Erlotinib, or Erlotinib and ISRIB.

PC9 cells [2] = assay: Initial response of PC9 cells to Erlotinib (viability, phase contrast imaging); format: cell-based, human; conditions: within five days, compared to the DMSO control
Procedure: Six hundred PC9 cells containing unique barcodes were expanded separately for 12 days. The clones were then pooled into groups of cells with replicate barcodes and subjected to a first scRNA-seq on Day 1. Subsequently, the groups of cells were treated with either DMSO (vehicle control) or Erlotinib. On Day 5 of the treatment, a second scRNA-seq was performed to evaluate an initial response of the cells to the treatments.

PC9 cells [3] = assay: Anti-growth effects in PC9 cells (clonogenic assay, cell counting, Incucyte imaging); format: cell-based, human; conditions: 1 μM
Procedure: Compound dose matching: […] Clonogenic assay: Cells were seeded at desired densities in two to three replicates in 6-well plates and allowed to attach overnight. The following day cells were treated with the indicated compounds. Media containing the appropriate compounds was replenished every 48-72 hours. At the end of the assay, the cells were washed once with PBS, fixed and stained with crystal violet solution (Sigma Aldrich, HT90132) for 20 minutes, washed with water, and allowed to dry before scanning. […] For experiments shown in FIG. 27B, cells were treated with either DMSO or 1 μM ISRIB (Tocris Cat. No. 5284) for 24 h, and then co-treated with EGFR inhibitors for 8 days.

PC9 cells [4] = assay: TraCe-seq experiment (barcoded PC9 cells, scRNA-seq on day four); format: cell-based, human; conditions: for cell cycle arrest (GO): fraction of cells in GO state inferred by gene expression, day four
Procedure: To conduct the TraCe-seq experiment, 600 PC9 cells carrying unique barcodes were randomly selected and these cells were expanded for ˜12 doublings to establish the starting population. Single cell transcriptional profiling on a fraction of this population at ˜30× coverage of the barcodes was performed to record the baseline transcriptional programs and relative clonal abundance. 200K of these cells were seeded and were treated with either erlotinib, GNE-104, or GNE-069. Cells were harvested on day four and profiled by 10×scRNA-seq to determine the relative fitness of each clone and capture treatment-induced transcriptional changes (FIG. 17D).
TraCe-Seq barcode assignment: TraCe-Seq barcode recovery from scRNA-Seq FASTQs was performed using Salmon (v. 0.1.1). Briefly, custom augmented Salmon index was created using human reference GRCh38 and transgene GFP fused to one of 100,000 30-nt GC-optimized barcode in library. Transcript expression of demultiplexed per-cell FASTQs were then quantified using custom Salmon index. Cells with single GFP-barcode expression were assigned to corresponding TraCe-Seq barcode. Cells with multiple TraCe-Seq barcodes expressed were assigned to a single TraCe-Seq barcode if expression one TraCe-Seq was 3-fold higher than other detected TraCe-Seq barcodes.

PC9 cells [5] = assay: scRNA-seq gene expression in barcoded PC9 cells (Example 3); format: cell-based, human; conditions: for ISR pathway / ATF4 and SLC7A5 expression: Day 5 of treatment; for canonical MAPK target gene expression: day 5 of treatment
Description: The above-described workflow was used to evaluate adaptation of mutated EGFR lung cancer cells to treatment strategies including EGFR kinase inhibition (Erlotinib) and EGFR protein degradation (Degrader G-104 or Degrader) using the PC9 (non-small cell lung carcinoma) cell line model. Six hundred PC9 cells containing unique barcodes were expanded separately for 12 days. The clones were then pooled into groups of cells with replicate barcodes and subjected to a first scRNA-seq on Day 1. Subsequently, the groups of cells were treated with either DMSO (vehicle control), Erlotinib, or Degrader. On Day 5 of the treatment, a second scRNA-seq was performed to evaluate an initial response of the cells to the treatments. Treatment with Erlotinib or Degrader was continued for approximately two more months. At the endpoint of the treatment, a final scRNA-seq was performed on the surviving cells. scRNA-seq data was analyzed with Next Generation Sequencing technologies, and barcode quantities were determined for both treatments, as illustrated in FIGS. 4A-4B.
Single cell RNA-seq data was further analyzed to evaluate how Degrader resistant clones respond differently to Erlotinib versus Degrader. […] Compared to Degrader, Erlotinib activated genes involved in ER protein processing pathways.
Thus, PC9 cells were treated with either siNTC+Erlotinib, siEGFR+Erlotinib, or siEGFR+DMSO, then analyzed for ISR and MAPK genes after 72 hrs (via scRNA-seq), and assessed for cell viability at Day 6. […] Results shown in FIG. 11D illustrate decreased efficacy of Erlotinib when combined with siEGFR, as indicated by greater numbers of viable cells in the Erlotinib+siEGFR treatment group compared to treatment by only Erlotinib.

H1975 cells = assay: Crystal violet viability of H1975 cells, Osimertinib plus Degrader (Example 3); format: cell-based, human; conditions: 100 nM Osimertinib 4 hours, then + 1 uM Degrader 24 hours
Procedure: H1975 cells were treated first for 4 hours with 100 nM of the kinase inhibitor Osimertinib, then subjected to co-treatment with 100 nM Osimertinib+1 uM of Degrader for 24 hours.

[6] = test system: EGFR-mutant lung cancer cell lines; assay: Clonogenic and CellTiter-Glo assay in EGFR-mutant lung cancer cell lines; format: cell-based, human; conditions: multiple EGFR-mutant lung cancer cell lines, vs erlotinib or GNE-069
Procedure: as §1, with “For experiments shown in FIG. 27B, cells were treated with either DMSO or 1 μM ISRIB (Tocris Cat. No. 5284) for 24 h, and then co-treated with EGFR inhibitors for 8 days. For other experiments cells were treated with 1 μM GNE-104 for 24 h, and then co-treated with 0.5 μg/ml Tunicamycin (Sigma Aldrich, T7765), or 1 nM Thapsigargin (Sigma Aldrich, T9033) for three days.” left out
Cell viability and cell death quantification: For experiments shown in FIGS. 24C, 27D, the indicated cells were seeded at desired densities in replicates in 24-well plates and allowed to attach overnight. […] At each media change, cell viabilities were quantified using CellTiter-Glo Luminescent Cell Viability Assay (Promega, G7572). […] Induction of cell death was quantified 24 h post-treatment using Caspase-Glo 3/7 Assay System (Promega, G8093) and cell survival were measured 72 h post-treatment using CellTiter-Glo Luminescent Cell Viability Assay (Promega, G7572). […]

EGFR = molecular target: T1, EGFR (Homo sapiens, UniProt P00533, DEL746-750); assay: Western blot of EGFR and pEGFR in HCC827 cells; format: cell-based; conditions: for EGFR degradation: HCC827 cells
T1 construct: does-dependent EGFR degradation induced by GNE-104 in HCC827 cells; endogenous in cells; host or cells: HCC827
Procedure: Immunoblotting: Immunoblotting performed using standard methods. Cells were briefly washed in ice-cold PBS and lysed in the following lysis buffer (1% NP40, 50 mM Tris, pH 7.8, 150 mM NaCl, 5 mM EDTA) plus protease inhibitor mixture (Complete mini tablets, Roche Applied Science, 11836170001) and phosphatase inhibitor mix (Thermo Fisher Scientific, 78420). Lysates centrifuged at 15,000 rpm for 10 minutes at 4° C. and the protein concentration determined by BCA (Thermo Fisher Scientific, 23227). Equal amounts of protein were resolved by SDS-PAGE on NuPAGE, 4-12% Bis-Tris Gels (Thermo Fisher Scientific, WG-1403) and transferred to nitrocellulose membrane (Bio-Rad, 170-4159). Membranes were blocked in blocking buffer (Li-Cor, 927-40000), incubated overnight with the indicated primary antibodies and analyzed by the addition of secondary antibodies IRDye 680LT Goat anti-Mouse IgG (Li-Cor, 926-68050) or IRDye 800CW Goat anti-Rabbit IgG (Li-Cor, 926-32211). The membranes were visualized on a Li-Cor Odyssey CLx Scanner. Anti-EGFR (MI-12-1) purchased from Medical and Biological Labs, anti-pEGFR (3777), anti β-Tubulin (2146) and anti-β-Actin (4970) purchased from Cell Signaling Technology. IR-conjugated secondary antibodies Goat anti-Mouse 680LT (926-68020), and Goat anti-Rabbit 800CW (926-32211) purchased from Li-Cor.

[7] = test system: common EGFR mutant variants; assay: in vitro kinase inhibition assay; format: biochemical; conditions: panel of 218 kinases

Molecule: C=CC(=O)Nc1cc(Nc2nccc(-c3cn(C)c4ccccc34)n2)c(OC)cc1N(C)CCN(C)C [osimertinib]
expression of key pro-death ISR genes downstream of ER stress (ATF4, CHOP, GADD34) (ATF4, CHOP, GADD34): significantly induced expression of key pro-death ISR genes

Molecule: tunicamycin
induction of pro-death ER stress genes (ATF4, CHOP, GADD34): greatly induced pro-death ER stress genes | cytotoxic activity of GNE-104 on co-treatment (PC9 and H1975 cells; PC9 cells, very low non-toxic concentrations of ER stress inducer): enhanced the cytotoxic activity of the degrader GNE-104

Molecule: O=C(COc1ccc(Cl)cc1)NC1CCC(NC(=O)COc2ccc(Cl)cc2)CC1 (centres unmarked) [ISRIB]
activation of ATF4, CHOP, GADD34 induced by EGFR kinase inhibitors (ATF4, CHOP, GADD34; ISRIB for 24 hours before adding EGFR kinase inhibitor): blunted activation of ATF4, CHOP, and GADD34 | cell killing by EGFR kinase inhibitors (PC9 and H1975 cells; ISRIB pre-treatment, PC9 and H1975 cells): decreased cell killing in both PC9 and H1975 cells | efficacy of Erlotinib on addition of ISRIB (cell viability) [1]: loss of efficacy of Erlotinib

Molecule: C#Cc1cccc(Nc2ncnc3cc(OCCOC)c(OCCOC)cc23)c1 [Erlotinib]
expression of key pro-death ISR genes downstream of ER stress (ATF4, CHOP, GADD34) (ATF4, CHOP, GADD34): significantly induced expression of key pro-death ISR genes | reduction in viability (PC9 cells [2]): greater than 98% | anti-growth effects (inhibiting cell growth) (PC9 cells [3]): comparable activity by all three measures | cell cycle arrest (GO) (PC9 cells [4]): far greater cell cycle arrest (GO) than GNE-104 | ISR pathway / ATF4 and SLC7A5 expression (PC9 cells [5]): additionally upregulated on Day 5 of Erlotinib treatment | canonical MAPK target gene expression (PC9 cells [5]): strongly suppressed canonical MAPK target genes

Molecule: C/C=C(/C)C(=O)O[C@H]1C(C)=C2[C@H]([C@@H]1OC(=O)CCCCCCC)[C@@](C)(OC(C)=O)C[C@H](OC(=O)CCC)[C@@]1(O)[C@H]2OC(=O)[C@@]1(C)O [thapsigargin]
induction of pro-death ER stress genes (ATF4, CHOP, GADD34): greatly induced pro-death ER stress genes | cytotoxic activity of GNE-104 on co-treatment (PC9 and H1975 cells): enhanced the cytotoxic activity of the degrader GNE-104

phospho-EGFR levels (EGFR): potently suppressed phospho-EGFR levels
Molecule: C#Cc1cccc(Nc2ncnc3cc(OCCOC)c(OCCOCC#CC#CCOCC(=O)N[C@H](C(=O)N4C[C@H](O)C[C@@H]4C(=O)NCc4ccc(-c5scnc5C)cc4)C(C)(C)C)cc23)c1 [GNE-104, (2R,4R)-1-((S)-2-(2-((6-(2-((4-((3-Ethynylphenyl)amino)-7-(2-methoxyethoxy)quinazolin-6-yl)oxy)ethoxy)hexa-2,4-diyn-1-yl)oxy)acetamido)-3,3-dimethylbutanoyl)-4-hydroxy-N-(4-(4-methylthiazol-5-yl)benzyl)pyrrolidine-2-carboxamide]
anti-growth effects (inhibiting cell growth) (PC9 cells [3]): far less efficient in inhibiting cell growth compared to erlotinib and GNE-069; also recorded: less efficacious | effect on kinase inhibitor activity (H1975 cells): attenuated kinase inhibitor activity | anti-growth effect [6]: reduced anti-growth effect | EGFR degradation (EGFR): significant dose-dependent degradation of EGFR | reduction of absolute number and diversity of TraCe-seq barcodes (PC9 cells [4]; day four of treatment): less effective in reducing both the absolute number and the diversity of TraCe-seq barcodes | ISR pathway / ATF4 and SLC7A5 expression (PC9 cells [5]): does not activate the ISR pathway | canonical MAPK target gene expression (PC9 cells [5]): strongly suppressed canonical MAPK target genes

Molecule: C#Cc1cccc(Nc2ncnc3cc(OCCOC)c(OCCOCC#CC#CCOCC(=O)N[C@H](C(=O)N4C[C@@H](O)CC4C(=O)NCc4ccc(-c5scnc5C)cc4)C(C)(C)C)cc23)c1 (stereo in doubt) [GNE-069, (2R,4S)-1-((S)-2-(2-((6-(2-((4-((3-Ethynylphenyl)amino)-7-(2-methoxyethoxy)quinazolin-6-yl)oxy)ethoxy)hexa-2,4-diyn-1-yl)oxy)acetamido)-3,3-dimethylbutanoyl)-4-hydroxy-N-(4-(4-methylthiazol-5-yl)benzyl)pyrrolidine-2-carboxamide]
anti-growth effects (inhibiting cell growth) (PC9 cells [3]): comparable activity by all three measures | EGFR degradation (EGFR): fails to engage VHL (due the specific stereochemistry in the VHL-binding moiety) and degrade EGFR | cell cycle arrest (GO) (PC9 cells [4]): far greater cell cycle arrest (GO) than GNE-104 | potency and selectivity profile in in vitro kinase inhibition assays [7]: comparable potency and selectivity profile as GNE-104
